Experimental data: publication PMC6133997, “Glutamic acid is a carrier for hydrazine during the biosyntheses of fosfazinomycin and kinamycin” (Nature Communications, 2018)

Tests used:
KinL = biological target: T1, KinL (Streptomyces murayamaensis, UniProt A0A385LSP3); test: LC-HRMS of culture supernatant of E. coli expressing KinL; type: cell-based; conditions: 1 mM acetylhydrazine, 1 mM glutamic acid, 15 °C overnight; empty-vector control
T1 construct: pET28a in live E. coli BL21(DE3), not purified
T1 sequence (A0A385LSP3 1-500): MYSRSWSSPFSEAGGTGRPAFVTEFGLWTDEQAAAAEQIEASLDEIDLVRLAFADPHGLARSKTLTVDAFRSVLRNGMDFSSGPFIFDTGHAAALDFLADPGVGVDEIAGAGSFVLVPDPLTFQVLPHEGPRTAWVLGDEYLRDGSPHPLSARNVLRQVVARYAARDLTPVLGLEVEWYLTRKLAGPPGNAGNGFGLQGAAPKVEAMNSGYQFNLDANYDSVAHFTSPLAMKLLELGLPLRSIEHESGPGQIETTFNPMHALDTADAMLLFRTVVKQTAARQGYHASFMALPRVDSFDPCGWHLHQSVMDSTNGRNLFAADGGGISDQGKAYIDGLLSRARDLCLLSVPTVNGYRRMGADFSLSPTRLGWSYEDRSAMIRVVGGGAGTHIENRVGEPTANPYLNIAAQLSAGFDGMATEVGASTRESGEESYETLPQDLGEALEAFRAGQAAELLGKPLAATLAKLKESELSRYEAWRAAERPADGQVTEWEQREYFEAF

FzmA = conditions: 21 µM enzyme, 5 mM substrate, 5 mM arginine, 6 mM MgCl2, 6 mM ATP, 50 mM NaH2PO4 pH 7.7, 21 h; hydrolysis to glutamic acid
FzmA, sequence (U5YQM4 entry or part of it): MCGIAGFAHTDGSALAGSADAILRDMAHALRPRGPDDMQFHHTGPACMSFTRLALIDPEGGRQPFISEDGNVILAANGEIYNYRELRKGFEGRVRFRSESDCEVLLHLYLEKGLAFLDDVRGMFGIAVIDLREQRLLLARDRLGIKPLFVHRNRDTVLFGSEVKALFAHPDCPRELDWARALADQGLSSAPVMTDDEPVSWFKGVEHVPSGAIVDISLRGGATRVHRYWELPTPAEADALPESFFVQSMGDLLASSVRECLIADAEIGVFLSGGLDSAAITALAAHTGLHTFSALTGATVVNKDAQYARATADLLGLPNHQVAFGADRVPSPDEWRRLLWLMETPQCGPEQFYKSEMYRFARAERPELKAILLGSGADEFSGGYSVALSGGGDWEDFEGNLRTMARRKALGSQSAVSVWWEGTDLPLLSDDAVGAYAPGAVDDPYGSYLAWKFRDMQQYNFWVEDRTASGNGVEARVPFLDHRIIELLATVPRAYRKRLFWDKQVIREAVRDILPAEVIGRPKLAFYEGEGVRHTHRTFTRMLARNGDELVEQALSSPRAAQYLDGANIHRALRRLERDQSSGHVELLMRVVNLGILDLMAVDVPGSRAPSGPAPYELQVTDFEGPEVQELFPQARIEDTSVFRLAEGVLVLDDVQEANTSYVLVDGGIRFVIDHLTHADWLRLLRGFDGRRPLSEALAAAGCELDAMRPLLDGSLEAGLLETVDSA

Row | Compound | LC-HRMS of culture supernatant of E. coli expressing KinL (KinL) | LC-MS after Fmoc-Cl derivatization (FzmA)
1 | CC(=O)NN [acetylhydrazine] | observed in culture supernatants only when KinL was expressed and acetylhydrazine was present | –
2 | NNC(=O)CC[C@H](N)C(=O)O [compound 6, glutamylhydrazine] | – | FzmA clearly has the ability to liberate hydrazine from glutamylhydrazine
